Here are results for four molecules from US20110189310A1, “SMALL MOLECULE MODULATORS OF PRONGF UPTAKE” (priority 2008, published 2011).

One series relates to Cultured rat SCG neurons. The conditions noted are these: for effect on proNGF induced neuronal apoptosis (FIG. 1): 10 μM compound, 5 ng/ml proNGF, rat SCG neurons 7 DIV. As for the experimental part:
(A) Neuronal apoptosis was assessed morphologically by DAPI and TuJ1 double staining and (B) quantitated as percentage of SCG neuron apoptosis. […] Error bars represent S.E.M.
A recent collaborative study assessed the expression and biological actions of proNGF following seizure induced injury to central neurons. […] (A) Neuronal apoptosis was assessed morphologically by DAPI and TuJ1 double staining and (B) quantitated as percentage of SCG neuron apoptosis. […] Error bars represent S.E.M.

The conditions of series [1]: cited from earlier work.
The conditions of series [2]: human, in vivo; cited from earlier work.
The next series deals with dopaminergic neurons. The conditions noted are these: one report; cited from earlier work.
The conditions of series [3]: rat, in vivo, sc, 100 mg/kg.
The conditions of series [4]: human, in vivo, cited from earlier work.
For series [5] the following is noted: mouse, in vivo; cited from earlier work.
For series [6] the following is noted: in vivo; cited from earlier work.
The conditions of series [7]: monkey, in vivo; cited from earlier work.

Like-named read-outs stand apart in the source and are kept apart here.

With `N[C@@H](Cc1ccc(O)c(O)c1)C(=O)O` [Levodopa], in the series with Cultured rat SCG neurons, the “effect on proNGF induced neuronal apoptosis (FIG. 1)” value is “blockade of proNGF induced neuronal apoptosis”. For the same molecule, the “inhibition of apoptosis, dose dependence” value with Cultured rat SCG neurons (proNGF-induced SCG neuronal cell death) is given as “dose dependent inhibition of apoptosis”. Moreover, the “toxicity profile in human” value in series [1] (human) is listed as “excellent toxicity profiles in human”. The “CSF level of major metabolite homovanillic acid” value in series [2] is 0.8 to 1 µM. Moreover, the “L-dopa concentrations required for toxicity to dopaminergic neurons” value in the series on dopaminergic neurons is 100 to 500 µM.
For `O=C([O-])CC(O)(CC(=O)[O-])C(=O)[O-].[Li+].[Li+].[Li+]` [Lithium Citrate], in the series with Cultured rat SCG neurons, the “inhibition of apoptosis, dose dependence” value is reported as “dose dependent inhibition of apoptosis” and the “effect on proNGF induced neuronal apoptosis (FIG. 1)” value is “blockade of proNGF induced neuronal apoptosis”. For the same molecule, the “toxicity profile in human” value in [1] (in vivo) was “excellent toxicity profiles in human”.
`O=C([O-])[O-].[Li+].[Li+]` [Lithium carbonate]: the “concentration at which efficacy is demonstrated” value in the series on Cultured rat SCG neurons amounted to 10 µM. In series [3], this molecule showed a peak serum concentration of 3 mM and a trough serum concentration of 300 µM. Moreover, in [4] (po), the serum concentration is 0.6 to 0.8 mmol. Also, the major toxicities result in [4] was “reversible renal impairment and anemia”. Further, in [5], the clinical toxicity entry is on record as “no clinical toxicity”. Moreover, the “brain concentration relative to serum concentration” value in [6] is “approximately half”. In addition, the “brain concentration relative to serum concentration” value in series [7] is recorded as “approximately half”.
For the molecule `CC[C@H](C)C(=O)O[C@H]1C[C@@H](C)C=C2C=C[C@H](C)[C@H](CC[C@@H]3C[C@@H](O)CC(=O)O3)[C@H]21` [Lovastatin], in the series with Cultured rat SCG neurons, the “inhibition of apoptosis, dose dependence” value is “dose dependent inhibition of apoptosis” and the “toxicity in SCG neuron assay” value is “without toxicity”. In addition, the “toxicity profile in human” value in [1] (in vivo) is “excellent toxicity profiles in human”.
